Test results taken from patent publication US20230150960A1, “COMPOSITIONS AND METHODS OF USING CYANINE DYES TO TARGET CANCER AND MITOCHONDRIA” (Thomas Jefferson University, priority 2020, published 2023).
Entries after “also recorded” stand apart in the source; their conditions may differ.

Legend:
[1] = Solubility of glycerol-containing formulations (post vortexing, 30 min and overnight at 18° C.); assay type: physicochemical; settings: glycerol-containing formulation, compound 2 mg/mL; for solubility at 30 min / solubility: 18 °C; for solubility at 30 min: after 30 minutes incubation at 18° C.; for solubility: overnight incubation at 18° C.; for solubility at 30 s: post vortexing
Description: Tables 3A, 3B, and 3C describe solubility experiments conducted with the indicated compounds under the listed conditions. Vortexing was conducted using a Denville Vortexer 59 (Denville Scientific Inc.), at maximum speed for 30 seconds. As used herein, the term overnight refers to a period lasting at least about 12-24 hours.

[2] = Solubility of BSA-containing formulations (post vortexing, 30 min and overnight at 18° C.); assay type: physicochemical; settings: BSA-containing formulation, aqueous with cosolvent or surfactant or cyclodextrin, compound 2 mg/mL; for solubility at 30 min / solubility: 18 °C; for solubility at 30 min: after 30 minutes incubation at 18° C.; for solubility: overnight incubation at 18° C.; for solubility at 30 s: post vortexing
Description: Vortexing was conducted using a Denville Vortexer 59 (Denville Scientific Inc.), at maximum speed for 30 seconds. As used herein, the term overnight refers to a period lasting at least about 12-24 hours.

MIA-PaCa2 cancer cells = test: Combination of JAC-B2 or JAC-R2 with another drug, cell survival by Pico Green, BLISS/HSA plot analyses; assay type: cell-based
Description: (§1) We analyzed cell survival using Pico Green and determined the combinational effects through BLISS/HSA plot analyses.
MIA-PaCa2 pancreatic cancer cells were purchased from the American Type Culture Collection (ATCC, Manassas, VA, USA) and grown in normal culture media (DMEM media, 10% FBS, 1% L-glutamine, 1% Penicillin-Streptomycin) at normal conditions (37° C., 5% CO2). Cells were trypsinized and plated at 1 thousand cells per well and in 96-well plates. […] Cell viability was assessed using pico-green dsDNA measurement and IC50S were calculated using GraphPad® (GraphPad Software, San Diego, CA, USA) by employing normalized nonlinear regression models. A summary of the combined efficacy of a compound of Formula I and an additional therapeutic agent is show in Table 2.

ASPC1 cancer cells = test: Combination of JAC-B2 with another drug, cell survival by Pico Green, BLISS/HSA plot analyses; assay type: cell-based; settings: combined with PDDX04, 5 days, FIG. 7P
Text: as §1

HT29 cancer cells = test: as above; assay type: cell-based; settings: combined with Cobimetinib, 5 days, FIG. 7O
Text: as §1

[3] = combined with Azacitidine, 5 days, MIA-PaCa2, FIG. 7J (JAC-B2), FIG. 7L (JAC-R2)
[4] = combined with Decitabine, 5 days, MIA-PaCa2, FIG. 7I (JAC-B2), FIG. 7K (JAC-R2)
[5] = combined with Paclitaxel, 5 days, FIG. 7F (JAC-B2), FIG. 7M (JAC-R2)

SMILES: CCN1/C(=C/C(C)=C/c2sc3ccccc3[n+]2CC)Sc2ccccc21 [JAC-B2.5, 3,3′-Diethyl-9-methylthiacarbocyanine iodide]
- solubility at 30 min ([1]; aqueous with cosolvent or surfactant or cyclodextrin, 10% glycerol, read-out: Solubility of glycerol-containing formulations after 30 min incubation at 18° C., 10%): < 2000 µg/mL
- solubility ([1]; aqueous with cosolvent or surfactant or cyclodextrin, 10% glycerol, read-out: Solubility of glycerol-containing formulations after overnight incubation at 18° C., 10%): < 2000 µg/mL
- solubility at 30 min ([1]; aqueous with cosolvent or surfactant or cyclodextrin, 20% glycerol, read-out: Solubility of glycerol-containing formulations after 30 min incubation at 18° C., 20%): < 2000 µg/mL
- solubility ([1]; aqueous with cosolvent or surfactant or cyclodextrin, 20% glycerol, read-out: Solubility of glycerol-containing formulations after overnight incubation at 18° C., 20%): < 2000 µg/mL
- solubility at 30 min ([1]; aqueous with cosolvent or surfactant or cyclodextrin, 30% glycerol, read-out: Solubility of glycerol-containing formulations after 30 min incubation at 18° C., 30%): < 2000 µg/mL
- solubility ([1]; aqueous with cosolvent or surfactant or cyclodextrin, 30% glycerol, read-out: Solubility of glycerol-containing formulations after overnight incubation at 18° C., 30%): < 2000 µg/mL
- solubility at 30 min ([1]; aqueous with cosolvent or surfactant or cyclodextrin, 40% glycerol, read-out: Solubility of glycerol-containing formulations after 30 min incubation at 18° C., 40%): < 2000 µg/mL
- solubility ([1]; aqueous with cosolvent or surfactant or cyclodextrin, 40% glycerol, read-out: Solubility of glycerol-containing formulations after overnight incubation at 18° C., 40%): < 2000 µg/mL
- solubility at 30 min ([1]; aqueous with cosolvent or surfactant or cyclodextrin, 50% glycerol, read-out: Solubility of glycerol-containing formulations after 30 min incubation at 18° C., 50%): < 2000 µg/mL
- solubility ([1]; aqueous with cosolvent or surfactant or cyclodextrin, 50% glycerol, read-out: Solubility of glycerol-containing formulations after overnight incubation at 18° C., 50%): < 2000 µg/mL
- solubility at 30 min ([1]; 0% glycerol, read-out: Solubility of glycerol-containing formulations after 30 min incubation at 18° C., 0%): < 2000 µg/mL
- solubility ([1]; 0% glycerol, read-out: Solubility of glycerol-containing formulations after overnight incubation at 18° C., 0%): < 2000 µg/mL
- solubility at 30 s ([1]; aqueous with cosolvent or surfactant or cyclodextrin, 10% glycerol, read-out: Solubility of glycerol-containing formulations post vortexing, 10%): < 2000 µg/mL
- solubility at 30 s ([1]; aqueous with cosolvent or surfactant or cyclodextrin, 20% glycerol, read-out: Solubility of glycerol-containing formulations post vortexing, 20%): < 2000 µg/mL
- solubility at 30 s ([1]; aqueous with cosolvent or surfactant or cyclodextrin, 30% glycerol, read-out: Solubility of glycerol-containing formulations post vortexing, 30%): < 2000 µg/mL
- solubility at 30 s ([1]; aqueous with cosolvent or surfactant or cyclodextrin, 40% glycerol, read-out: Solubility of glycerol-containing formulations post vortexing, 40%): < 2000 µg/mL
- solubility at 30 s ([1]; aqueous with cosolvent or surfactant or cyclodextrin, 50% glycerol, read-out: Solubility of glycerol-containing formulations post vortexing, 50%): < 2000 µg/mL
- solubility at 30 s ([1]; 0% glycerol, read-out: Solubility of glycerol-containing formulations post vortexing, 0%): < 2000 µg/mL
- solubility at 30 min ([2]; BSA 40 mg/mL, read-out: Solubility of BSA-containing formulations after 30 min incubation at 18° C., 40 mg/mL): < 2000 µg/mL
- solubility ([2]; BSA 40 mg/mL, read-out: Solubility of BSA-containing formulations after overnight incubation at 18° C., 40 mg/mL): < 2000 µg/mL
- solubility at 30 min ([2]; BSA 60 mg/mL, read-out: Solubility of BSA-containing formulations after 30 min incubation at 18° C., 60 mg/mL): < 2000 µg/mL
- solubility ([2]; BSA 60 mg/mL, read-out: Solubility of BSA-containing formulations after overnight incubation at 18° C., 60 mg/mL): < 2000 µg/mL
- solubility at 30 min ([2]; BSA 80 mg/mL, read-out: Solubility of BSA-containing formulations after 30 min incubation at 18° C., 80 mg/mL): < 2000 µg/mL
- solubility ([2]; BSA 80 mg/mL, read-out: Solubility of BSA-containing formulations after overnight incubation at 18° C., 80 mg/mL): < 2000 µg/mL
- solubility at 30 min ([2]; BSA 100 mg/mL, read-out: Solubility of BSA-containing formulations after 30 min incubation at 18° C., 100 mg/mL): < 2000 µg/mL
- solubility ([2]; BSA 100 mg/mL, read-out: Solubility of BSA-containing formulations after overnight incubation at 18° C., 100 mg/mL): < 2000 µg/mL
- solubility at 30 s ([2]; BSA 40 mg/mL, read-out: Solubility of BSA-containing formulations post vortexing, 40 mg/mL): < 2000 µg/mL
- solubility at 30 s ([2]; BSA 60 mg/mL, read-out: Solubility of BSA-containing formulations post vortexing, 60 mg/mL): < 2000 µg/mL
- solubility at 30 s ([2]; BSA 80 mg/mL, read-out: Solubility of BSA-containing formulations post vortexing, 80 mg/mL): < 2000 µg/mL
- solubility at 30 s ([2]; BSA 100 mg/mL, read-out: Solubility of BSA-containing formulations post vortexing, 100 mg/mL): < 2000 µg/mL

SMILES: CCN1/C(=C/C=C/C=C/c2oc3ccccc3[n+]2CC)Oc2ccccc21 [JAC-R2, 3′,3′-Diethyloxadicarbocyanine iodide]
- Effect of combination (MIA-PaCa2 cancer cells; [3]): Synergistic
- Effect of combination (MIA-PaCa2 cancer cells; [4]): Synergistic
- Effect of combination (MIA-PaCa2 cancer cells; [5]): Synergistic

SMILES: CCN1/C(=C/C=C/C=C/c2sc3ccccc3[n+]2CC)Sc2ccccc21 [JAC-B2, Dithiazanine Iodide]
- Effect of combination (MIA-PaCa2 cancer cells; combined with 5-Fluorouracil, 5 days, FIG. 7N): Synergistic
- Effect of combination (MIA-PaCa2 cancer cells; combined with Abemaciclib, 5 days, MIA-PaCa2, FIG. 7H): Synergistic
- Effect of combination (MIA-PaCa2 cancer cells; combined with Adavosertib, 5 days, MIA-PaCa2, FIG. 7R): Synergistic
- Effect of combination (MIA-PaCa2 cancer cells; [3]): Synergistic
- Effect of combination (MIA-PaCa2 cancer cells; combined with Colchicine, 5 days, MIA-PaCa2, FIG. 7Q): Synergistic
- Effect of combination (MIA-PaCa2 cancer cells; [4]): Synergistic
- Effect of combination (MIA-PaCa2 cancer cells; combined with Everolimus, 5 days, MIA-PaCa2, FIG. 7E): Additive
- Effect of combination (MIA-PaCa2 cancer cells; combined with Gemcitabine, 5 days, MIA-PaCa2, FIG. 7A): antagonistic response; also recorded: Antagonistic/Additive
- Effect of combination (MIA-PaCa2 cancer cells; combined with Hydralazine, no figure): Antagonistic/Additive
- Effect of combination (MIA-PaCa2 cancer cells; combined with Irinotecan, 5 days, MIA-PaCa2, FIG. 7C): Additive
- Effect of combination (MIA-PaCa2 cancer cells; combined with Metformin, no figure): Additive
- Effect of combination (MIA-PaCa2 cancer cells; combined with Methotrexate, 5 days, MIA-PaCa2, FIG. 7B): Additive
- Effect of combination (MIA-PaCa2 cancer cells; combined with Olaparib, 5 days, MIA-PaCa2, FIG. 7D): antagonistic response; also recorded: Antagonistic/Additive
- Effect of combination (MIA-PaCa2 cancer cells; combined with Oxaliplatin, 5 days, MIA-PaCa2, FIG. 7G): Synergistic
- Effect of combination (MIA-PaCa2 cancer cells; [5]): Synergistic
- Effect of combination (MIA-PaCa2 cancer cells; combined with VE-821, 5 days, MIA-PaCa2, FIG. 7S): Synergistic
- Effect of combination (ASPC1 cancer cells): Synergistic
- Effect of combination (HT29 cancer cells): Synergistic
